Measurements as given in patent publication EP0175291B1, “Novel alpha-D-mannosidase inhibitor” (MICROBIAL CHEMISTRY RESEARCH FOUNDATION, priority 1984, dated 1986).
Entries after “also recorded” stand apart in the source; their conditions may differ.

Legend:
[1] = target: T1, α-D-mannosidase of the rat epididymis origin (Rattus norvegicus, UniProt Q6P762); assay: α-D-mannosidase inhibitory activity, colorimetric, p-nitrophenyl-α-D-mannopyranoside substrate; assay type: biochemical; details: qualitative statement
T1 sequence (Q6P762 50-1009): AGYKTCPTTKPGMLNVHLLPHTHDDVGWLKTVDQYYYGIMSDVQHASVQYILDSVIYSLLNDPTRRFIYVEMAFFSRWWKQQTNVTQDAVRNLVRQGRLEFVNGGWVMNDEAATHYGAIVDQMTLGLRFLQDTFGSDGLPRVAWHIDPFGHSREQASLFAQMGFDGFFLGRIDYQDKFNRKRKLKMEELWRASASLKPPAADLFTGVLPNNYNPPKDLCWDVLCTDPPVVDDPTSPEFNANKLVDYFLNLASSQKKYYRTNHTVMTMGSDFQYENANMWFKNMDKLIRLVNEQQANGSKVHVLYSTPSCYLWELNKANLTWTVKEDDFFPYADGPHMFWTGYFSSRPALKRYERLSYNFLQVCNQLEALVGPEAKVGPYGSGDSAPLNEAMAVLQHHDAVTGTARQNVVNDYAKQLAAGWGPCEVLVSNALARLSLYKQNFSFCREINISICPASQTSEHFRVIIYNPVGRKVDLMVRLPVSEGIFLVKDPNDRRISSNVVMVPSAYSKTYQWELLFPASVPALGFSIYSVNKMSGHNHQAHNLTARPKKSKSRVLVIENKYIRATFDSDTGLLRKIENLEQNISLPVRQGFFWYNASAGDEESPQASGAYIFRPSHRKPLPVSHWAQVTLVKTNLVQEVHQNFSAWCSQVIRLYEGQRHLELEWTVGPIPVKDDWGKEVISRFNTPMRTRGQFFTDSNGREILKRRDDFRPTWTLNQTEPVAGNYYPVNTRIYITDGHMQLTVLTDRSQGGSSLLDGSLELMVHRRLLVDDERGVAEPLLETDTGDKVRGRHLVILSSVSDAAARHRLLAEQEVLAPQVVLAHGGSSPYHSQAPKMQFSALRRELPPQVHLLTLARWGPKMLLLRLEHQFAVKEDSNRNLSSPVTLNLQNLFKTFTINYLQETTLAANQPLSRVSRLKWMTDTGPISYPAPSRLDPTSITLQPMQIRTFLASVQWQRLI
Description: Assay of the compounds according to this invention is performed by measuring their α-D-mannosidase inhibitory activity. The activity of α-D-mannosidase is determined by colorimetrically measuring the amount of p-nitrophenol that has been liberated when p-nitrophenyl-α-D-mannopyranoside (Koch-Light Laboratories, England) as a substrate is hydrolyzed with α-D-mannosidase of the rat epididymis origin (a fraction obtained by precipitation with 20 - 80% ammonium sulfate at the Institute of Microbial Chemistry). Details of said procedure are as follows: p-Nitro-phenyl-α-D-mannopyranoside is dissolved in 50% methanol to make a 0.04M solution. To 0.05 ml of the 0.04M substrate solution are added 0.25 ml of a 0.1M acetate buffer (pH 4.5) and 0.15 ml of water or an aqueous solution containing the test compound. The mixture is heated at 37°C for 3 minutes, and 0.05 ml of -D-mannosidase is added. […] The reaction mixture is measured for the absorbance (A) at 400 nm. Separately, the control mixture comprising only water and being free from the aforesaid test compound solution is measured for the absorbance termed (b). The α-D-mannosidase inhibition rate (%) is calculated from the equation (b - a)/b x 100. […]

[2] = system: α-D-mannosidase of the leguminous plant origin; details: qualitative, prior art; cited from earlier work

SMILES: C[S+]([O-])C1C(N)C(O)C(O)C1O (stereo not drawn) [mannostatin S-oxide]
- inhibition of α-D-mannosidase of the animal origin (rat epididymides), in words [1]: stronghly inhibit; also recorded: strongly inhibit

SMILES: O[C@H]1[C@H]2[C@H](O)CCCN2C[C@H]1O [Swainsonine]
- inhibition of α-D-mannosidase of the leguminous plant origin, in words [2]: inhibits

SMILES: CSC1C(N)C(O)C(O)C1O (stereo not drawn) [mannostatin]
- inhibition of α-D-mannosidase of the animal origin (rat epididymides), in words [1]: stronghly inhibit; also recorded: strongly inhibit
